# Measurements as given in patent US5684222A (priority 1994, dated 1997).
# Tested on: TNFRp55+/+ mice
# Conditions: mouse, in vivo
smiles,measurement,value
"N[C@H]1C(O)O[C@H](CO)[C@H](O)[C@@H]1O (stereo partly drawn) [D-Gal, D-galactosamine]",TNFRp55 +/+ dead/group,0/4
